Three compounds from ChEMBL document CHEMBL5729720, “Pyridine and pyrazine derivatives as preferential cannabinoid 2 agonists” (2023) can be followed below.

The target in this test is Cannabinoid receptor 2 (Homo sapiens, UniProt P34972). The experiment in a line: Radioligand Binding Assay: The affinity of the compounds of the invention for cannabinoid CB1 receptors was determined using recommended amounts of membrane preparations (PerkinElmer) of human embryonic kidney (HEK) cells expressing the human CNR1 or CNR2 receptors in conjunction with 1.5 or 2.6 nM [3H]-CP-55,940 (Perkin Elmer) as radioligand, respectively. Binding was performed in binding buffer (50 mM Tris, 5 mM MgCl2, 2.5 mM EDTA, and 0.5% (wt/vol) fatty acid free BSA, pH 7.4 for CB1 receptor and 50 mM Tris, 5 mM MgCl2, 2.5 mM EGTA, and 0.1% (wt/vol) fatty acid free BSA, pH 7.4 for CB2 receptor) in a total volume of 0.2 ml for 1 h at 30° C. shaking. The reaction was terminated by rapid filtration through microfiltration plates coated with 0.5% polyethylenimine (UniFilter GFB filter plate; Packard). Bound radioactivity was analyzed for Ki using nonlinear regression analysis (Activity Base, ID Business Solution, Limited), with the Kd values for [3H]CP55,940 determined from saturation experiments. The compounds of formula (I) show an excellent affinity for the CB2 receptor.
Sequence of Cannabinoid receptor 2 (P34972 whole entry): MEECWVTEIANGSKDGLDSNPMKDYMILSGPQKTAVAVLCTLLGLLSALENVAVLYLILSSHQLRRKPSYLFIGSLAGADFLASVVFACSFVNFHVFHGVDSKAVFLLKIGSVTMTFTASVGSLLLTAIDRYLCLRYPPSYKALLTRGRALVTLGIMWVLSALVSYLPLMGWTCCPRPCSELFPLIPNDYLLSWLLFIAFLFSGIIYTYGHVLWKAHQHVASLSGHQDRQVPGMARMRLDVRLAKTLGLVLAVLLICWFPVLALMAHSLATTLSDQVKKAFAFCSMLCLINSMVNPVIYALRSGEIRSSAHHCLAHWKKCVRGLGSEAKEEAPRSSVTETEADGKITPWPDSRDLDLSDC

Turning to `CCC(CC)(NC(=O)c1ccc(N2CC(OC)C2)c(OC[C@H]2C[C@@H]2CO)n1)C(=O)OCCCCF`, the Ki is 1.8 nM.

Regarding `CCOC(=O)C(CC)(CC)NC(=O)c1ccc(N2CC(OC)C2)c(OC[C@H]2C[C@@H]2COCF)n1` (mixture of isomers), the Ki stood at 1.8 nM.

`CCOC(=O)C(CC)(CC)NC(=O)c1ccc(N2CC(OC)C2)c(OC[C@H]2C[C@@H]2COCCF)n1` (mixture of isomers): the Ki was 3.7 nM.

One may read the Ki as a measure of affinity in units of concentration, obtained from inhibition or displacement.
